Source: US20230101747A1 (Schrödinger, Inc., priority 2019, published 2023)

target: T1, Full length human CDC7 protein co-expressed with DBF4 (Homo sapiens, UniProt O00311); experiment: CDC7 kinase biochemical assay (ADP-Glo, PDKtide substrate); conditions: 0.1 nM CDC7/DBF4, 1 uM ATP, 10 uM PDKtide, 4 h; read-out: CDC7 ADP-Glo PDKtide IC50
T1 construct: Full length human CDC7 protein co-expressed with DBF4; purchased SignalChem (China)
Method: CDC7 Kinase Biochemical Assay Protocol:
Full length human CDC7 protein co-expressed with DBF4 was purchased from SignalChem (China). CDC7 kinase activity was determined with PDKtide (SignalChem) as a substrate and by measuring ADP production using the ADP-Glo™ Kinase Assay kit (Promega) following the manufacturers instructions. The kinase reaction was performed using the following conditions: Buffer: 40 mM Tris pH 7.5, 20 mM MgCl2, 0.1 mg/ml BSA and 50 uM DTT. Final reaction mix contained 0.1 nM CDC7/DBF4, 1 uM ATP and 10 uM PDKtide. The kinase reaction time was 4 h. The ADP-Glo signal was measured using an EnVision plate reader (PerkinELmer).
Percent inhibition of CDC7 kinase activity was calculated based on the following formula: […]
SSample: the signal of compounds SHigh ctrl: the signal of high control (DMSO) SLow Ctrl: the signal of low control (positive control CDC7 inhibitor)

T1 sequence (O00311 whole entry): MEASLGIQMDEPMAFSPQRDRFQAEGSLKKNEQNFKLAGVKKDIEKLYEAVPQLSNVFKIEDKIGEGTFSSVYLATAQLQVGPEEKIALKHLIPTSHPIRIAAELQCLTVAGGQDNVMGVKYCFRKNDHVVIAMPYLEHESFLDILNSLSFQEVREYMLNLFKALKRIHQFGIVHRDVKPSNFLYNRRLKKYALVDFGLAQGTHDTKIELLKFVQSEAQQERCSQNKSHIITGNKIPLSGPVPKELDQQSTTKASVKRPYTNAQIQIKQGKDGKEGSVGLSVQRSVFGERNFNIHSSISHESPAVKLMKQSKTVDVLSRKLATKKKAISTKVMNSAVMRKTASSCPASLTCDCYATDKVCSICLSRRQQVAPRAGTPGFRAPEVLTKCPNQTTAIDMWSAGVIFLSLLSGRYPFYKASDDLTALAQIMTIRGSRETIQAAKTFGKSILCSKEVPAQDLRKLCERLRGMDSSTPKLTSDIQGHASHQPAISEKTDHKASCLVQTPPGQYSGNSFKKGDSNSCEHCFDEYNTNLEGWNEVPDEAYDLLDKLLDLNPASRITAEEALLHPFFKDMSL
T1 sequence (Q9UBU7 whole entry partner): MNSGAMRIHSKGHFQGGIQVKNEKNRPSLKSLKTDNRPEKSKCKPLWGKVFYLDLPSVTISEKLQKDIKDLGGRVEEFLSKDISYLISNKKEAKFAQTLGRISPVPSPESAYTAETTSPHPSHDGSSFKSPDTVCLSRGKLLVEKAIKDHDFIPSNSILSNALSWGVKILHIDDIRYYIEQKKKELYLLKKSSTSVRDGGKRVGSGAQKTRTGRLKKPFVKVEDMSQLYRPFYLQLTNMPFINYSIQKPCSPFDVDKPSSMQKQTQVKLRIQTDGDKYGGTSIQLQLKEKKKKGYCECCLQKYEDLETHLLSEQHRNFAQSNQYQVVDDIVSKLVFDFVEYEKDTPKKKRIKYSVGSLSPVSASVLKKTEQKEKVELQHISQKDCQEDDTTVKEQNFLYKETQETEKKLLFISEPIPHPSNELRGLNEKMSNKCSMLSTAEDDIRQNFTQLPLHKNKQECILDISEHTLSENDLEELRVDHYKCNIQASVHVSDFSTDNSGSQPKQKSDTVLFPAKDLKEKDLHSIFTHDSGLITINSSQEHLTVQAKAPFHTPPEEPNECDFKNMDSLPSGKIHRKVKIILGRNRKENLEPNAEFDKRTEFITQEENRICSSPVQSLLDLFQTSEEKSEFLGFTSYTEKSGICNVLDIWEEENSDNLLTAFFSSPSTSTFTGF

IC50 | Structure (SMILES)
1 to 10 nM | O=C1N[C@@H](CN2CCC2)CN2CCOc3c(-c4cn[nH]c4)sc1c32 [Compound 40, (S)-7-(azetidin-1-ylmethyl)-2-(1H-pyrazol-4-yl)-4,5,7,8-tetrahydro-3-oxa-1-thia-5a,8-diazabenzo[cd]azulen-9(6H)-one]
> 10 nM | O=C1NC(C2CCCCO2)CN2CCCc3c(-c4cn[nH]c4)sc1c32 (single isomer, unassigned) [Compound 109]
< 1 nM | C[C@H]1CN2CC(F)(F)Cc3c(-c4cn[nH]c4)sc(c32)C(=O)N1 [Compound 101, (10S)-6,6-difluoro-10-methyl-3-(1H-pyrazol-4-yl)-2-thia-8,11-diazatricyclo[6.4.1.0^4,13]trideca-1(13),3-dien-12-one]
< 1 nM | O=C1NC[C@H](CO)N2CCCc3c(-c4cn[nH]c4)sc1c32 [Compound 87, (R)-6-(hydroxymethyl)-2-(1H-pyrazol-4-yl)-4,5,7,8-tetrahydro-3H-1-thia-5a,8-diazabenzo[cd]azulen-9(6H)-one]
< 1 nM | C[C@H]1CN2CCOc3c(-c4ccncc4)sc(c32)C(=O)N1 [Compound 15, (S)-7-methyl-2-(pyridin-4-yl)-4,5,7,8-tetrahydro-3-oxa-1-thia-5a,8-diazabenzo[cd]azulen-9(6H)-one]
< 1 nM | CC1(C)NC(=O)c2sc(-c3ccncc3)c3c2N1CCCO3 [Compound 3, 5,5-Dimethyl-1-(pyridin-4-yl)-4,5,7,8-tetrahydro-3H,6H-9-oxa-2-thia-4,5a-diazabenzo[cd]azulen-3-one]
1 to 10 nM | C[C@H]1CN2C(=O)CCc3c(-c4cn[nH]c4)sc(c32)C(=O)N1 [Compound 29, (S)-7-methyl-2-(1H-pyrazol-4-yl)-3,4,7,8-tetrahydro-5H-1-thia-5a,8-diazabenzo[cd]azulene-5,9(6H)-dione]
1 to 10 nM | O=C1NC[C@H](CN2CCC2)N2CCCc3c(-c4cn[nH]c4)sc1c32 [Compound 94, (R)-6-(azetidin-1-ylmethyl)-2-(1H-pyrazol-4-yl)-4,5,7,8-tetrahydro-3H-1-thia-5a,8-diazabenzo[cd]azulen-9(6H)-one]
1 to 10 nM | Cc1cnn(C[C@H]2CNC(=O)c3sc(-c4cn[nH]c4)c4c3N2CCC4)c1 [Compound 95, (R)-6-((4-methyl-1H-pyrazol-1-yl)methyl)-2-(1H-pyrazol-4-yl)-4,5,7,8-tetrahydro-3H-1-thia-5a,8-diazabenzo[cd]azulen-9(6H)-one]
1 to 10 nM | CC1(C)NC(=O)c2sc(-c3ccnc4[nH]ncc34)c3c2N1CCO3 [Compound 8, 6,6-dimethyl-2-(1H-pyrazolo[3,4-b]pyridin-4-yl)-4,5,6,7-tetrahydro-8H-3-oxa-1-thia-5a,7-diazaacenaphthylen-8-one]
1 to 10 nM | COC[C@H]1CNC(=O)c2sc(-c3cn[nH]c3)c3c2N1CCC3 [Compound 88, (R)-6-(methoxymethyl)-2-(1H-pyrazol-4-yl)-4,5,7,8-tetrahydro-3H-1-thia-5a,8-diazabenzo[cd]azulen-9(6H)-one]
1 to 10 nM | COC[C@H]1[C@@H](C2CCC2)NC(=O)c2sc(-c3cn[nH]c3)c3c2N1CCO3 (single isomer, unassigned) [Compound 98]
< 1 nM | CNC[C@H]1CNC(=O)c2sc(-c3cn[nH]c3)c3c2N1CCO3 [Compound 37, (S)-6-((methylamino)methyl)-2-(1H-pyrazol-4-yl)-4,5,7,8-tetrahydro-3-oxa-1-thia-5a,8-diazabenzo[cd]azulen-9(6H)-one]
< 1 nM | COC[C@@H]1CNC(=O)c2sc(-c3ccncc3)c3c2N1CCO3 [Compound 105, (S)-6-(methoxymethyl)-2-(pyridin-4-yl)-4,5,7,8-tetrahydro-3-oxa-1-thia-5a,8-diazabenzo[cd]azulen-9(6H)-one]
< 1 nM | O=C1NCCN2c3c1sc(-c1cn[nH]c1)c3OC[C@H]2CNC(=O)C1CCC1 [Compound 58, (R)—N-((9-oxo-2-(1H-pyrazol-4-yl)-4,5,6,7,8,9-hexahydro-3-oxa-1-thia-5a,8-diazabenzo[cd]azulen-5-yl)methyl)cyclobutanecarboxamide]
1 to 10 nM | C[C@H]1CNC(=O)c2sc(-c3ccncc3)c3c2N1CCO3 [Compound 24, (S)-6-methyl-2-(pyridin-4-yl)-4,5,7,8-tetrahydro-3-oxa-1-thia-5a,8-diazabenzo[cd]azulen-9(6H)-one]
> 10 nM | O=C1NC[C@H](C2CCOCC2)N2CCOc3c(-c4cn[nH]c4)sc1c32 (single isomer, unassigned) [Compound 28]
< 1 nM | O=C1N[C@@H](C2CCOCC2)CN2CCOc3c(-c4cn[nH]c4)sc1c32 [Compound 65, (S)-2-(1H-pyrazol-4-yl)-7-(tetrahydro-2H-pyran-4-yl)-4,5,7,8-tetrahydro-3-oxa-1-thia-5a,8-diazabenzo[cd]azulen-9(6H)-one]
< 1 nM | CNC[C@H]1CN2CCOc3c(-c4cn[nH]c4)sc(c32)C(=O)N1 [Compound 47, (S)-7-((methylamino)methyl)-2-(1H-pyrazol-4-yl)-4,5,7,8-tetrahydro-3-oxa-1-thia-5a,8-diazabenzo[cd]azulen-9(6H)-one]
< 1 nM | Cc1n[nH]cc1-c1sc2c3c1CC(F)(F)CN3C[C@H]([C@H]1CCCO1)NC2=O (single isomer, unassigned) [Compound 119]
> 10 nM | Cc1ccnn1C[C@H]1CNC(=O)c2sc(-c3cn[nH]c3)c3c2N1CCO3 [Compound 62, (R)-6-((5-methyl-1H-pyrazol-1-yl)methyl)-2-(1H-pyrazol-4-yl)-4,5,7,8-tetrahydro-3-oxa-1-thia-5a,8-diazabenzo[cd]azulen-9(6H)-one]
1 to 10 nM | Cc1cnn(C[C@@H]2CNC(=O)c3sc(-c4cn[nH]c4)c4c3N2CCO4)c1 [Compound 63, (S)-6-((4-methyl-1H-pyrazol-1-yl)methyl)-2-(1H-pyrazol-4-yl)-4,5,7,8-tetrahydro-3-oxa-1-thia-5a,8-diazabenzo[cd]azulen-9(6H)-one]
< 1 nM | N#CC[C@@H]1CNC(=O)c2sc(-c3cn[nH]c3)c3c2N1CCC3 [Compound 97, (R)-2-(9-oxo-2-(1H-pyrazol-4-yl)-4,5,6,7,8,9-hexahydro-3H-1-thia-5a,8-diazabenzo[cd]azulen-6-yl)acetonitrile]
< 1 nM | O=C1NC[C@@H](CO)N2CCOc3c(-c4cn[nH]c4)sc1c32 [Compound 34, (S)-6-(hydroxymethyl)-2-(1H-pyrazol-4-yl)-4,5,7,8-tetrahydro-3-oxa-1-thia-5a,8-diazabenzo[cd]azulen-9(6H)-one]
< 1 nM | O=C1NC([C@H]2[C@@H]3COC[C@@H]32)CN2CC(F)(F)Cc3c(-c4cn[nH]c4)sc1c32 (single isomer, unassigned) [Compound 123]
< 1 nM | O=C1NC(C2CC(F)(F)C2)CN2CC(F)Cc3c(-c4cn[nH]c4)sc1c32 (single isomer, unassigned) [Compound 129, 7-(3,3-difluorocyclobutyl)-4-fluoro-2-(1H-pyrazol-4-yl)-4,5,7,8-tetrahydro-3H-1-thia-5a,8-diazabenzo[cd]azulen-9(6H)-one]
< 1 nM | Cc1ccn(C[C@H]2CN3CCOc4c(-c5cn[nH]c5)sc(c43)C(=O)N2)n1 [Compound 43, (R)-7-((3-methyl-1H-pyrazol-1-yl)methyl)-2-(1H-pyrazol-4-yl)-4,5,7,8-tetrahydro-3-oxa-1-thia-5a,8-diazabenzo[cd]azulen-9(6H)-one]
